Measured values: patent US10799503B2, “Methods for the treatment of cancer” (IGNYTA, INC., priority 2016, dated 2020)

Legend:
[1] = Phase I and Phase Ib clinical studies (Example 5, data cut-off Aug. 1, 2017): treatment-related adverse events and disposition; type: in vivo, human
From the text: The most common (>10%) treatment related AEs […].

[2] = Phase I and Phase Ib clinical studies (Example 4): treatment-related adverse events and disposition; type: in vivo, human
Experimental: Phase I and Phase Ib clinical studies were performed in which 92 total subjects were enrolled, 91 of which were treated, and of which 35 in the Phase Ib portion were determined to be molecularly evaluable and were treated.
Table 4 provides a summary of the most common, treatment-related adverse events (AEs) in all patients that were treated (n=91), expressed as a percentage of the 91 patients.

COc1cc2ncnc(Oc3cccc(NC(=O)Nc4cc(C(C)(C)C(F)(F)F)on4)c3)c2cc1OC [N-[3-[(6,7-dimethoxy-4-quinazolinyl)oxy]phenyl]-N′-[5-(2,2,2-trifluoro-1,1-dimethylethyl)-3-isoxazolyl]-urea]
Number of patients that discontinued due to death ([1]; Phase 1 (N = 55)): 3 n
Number of patients that discontinued due to death ([1]; Phase 1b Other (N = 50)): 1 n
Number of patients that discontinued due to death ([1]; Phase 1b RET+ (N = 47)): 0 n
Number of patients that discontinued due to death ([1]; Total Subjects (N = 152)): 4 n
Blood Bilirubin Increased ≤G2 ([1]; human, in vivo): 6 (4)
Blood Bilirubin Increased ≥G3 ([1]; human, in vivo): 1 (1)
Decreased Appetite ≤G2 ([1]; human, in vivo): 17 (11)
Decreased Appetite ≥G3 ([1]; human, in vivo): 0 (0)
Diarrhea ≤G2 ([1]; human, in vivo): 28 (18)
Diarrhea ≥G3 ([1]; human, in vivo): 6 (4)
Elevated Alanine Aminotransferase ≤G2 ([1]; human, in vivo): 4 (3)
Elevated Alanine Aminotransferase ≥G3 ([1]; human, in vivo): 11 (7)
Elevated Aspartate Aminotransferase ≤G2 ([1]; human, in vivo): 9 (6)
Elevated Aspartate Aminotransferase ≥G3 ([1]; human, in vivo): 6 (4)
Fatigue ≤G2 ([1]; human, in vivo): 27 (18)
Fatigue ≥G3 ([1]; human, in vivo): 5 (3)
Hypophosphatemia ≤G2 ([1]; human, in vivo): 13 (9)
Hypophosphatemia ≥G3 ([1]; human, in vivo): 11 (7)
Muscle Spasms ≤G2 ([1]; human, in vivo): 19 (13)
Muscle Spasms ≥G3 ([1]; human, in vivo): 0 (0)
Nausea ≤G2 ([1]; human, in vivo): 21 (14)
Nausea ≥G3 ([1]; human, in vivo): 0 (0)
Rash* ≤G2 ([1]; human, in vivo): 37 (24)
Rash* ≥G3 ([1]; human, in vivo): 15 (10)
Vomiting ≤G2 ([1]; human, in vivo): 15 (10)
Vomiting ≥G3 ([1]; human, in vivo): 0 (0)
number of treatment-related serious adverse events (SAEs) ([1]; human, in vivo): 19
patients who experienced treatment-related serious adverse events (SAEs) ([1]; human, in vivo): 9%
resolution of treatment-related serious adverse events ([1]; human, in vivo): all except 1 resolved by dose modification or discontinuation
safety profile ([1]; human, in vivo): manageable safety profile
severity and reversibility of the majority of treatment-related adverse events ([1]; human, in vivo): <Grade 2 and were reversible with dose modifications
toxicities commonly associated with VEGFR inhibition (hypertension, hypothyroidism, proteinuria, neurotoxicity) ([1]; human, in vivo): rarely observed
Discontinued, primary reason Death, number of subjects ([2]; 92 enrolled in Phase 1/1b): 4 n
Discontinued, primary reason Death, percent of subjects ([2]; 92 enrolled in Phase 1/1b): (4) %
ALT increase Any Grade, number of patients ([2]; human, in vivo): 6
ALT increase Any Grade, percentage of patients ([2]; human, in vivo): (7) %
ALT increase Grade ≤ 2, number of patients ([2]; human, in vivo): 1
ALT increase Grade ≤ 2, percentage of patients ([2]; human, in vivo): (1) %
ALT increase Grade ≥ 3, number of patients ([2]; human, in vivo): 5
ALT increase Grade ≥ 3, percentage of patients ([2]; human, in vivo): (6) %
AST increase Any Grade, number of patients ([2]; human, in vivo): 6
AST increase Any Grade, percentage of patients ([2]; human, in vivo): (7) %
AST increase Grade ≤ 2, percentage of patients ([2]; human, in vivo): (3) %
AST increase Grade ≥ 3, number of patients ([2]; human, in vivo): 3
AST increase Grade ≥ 3, percentage of patients ([2]; human, in vivo): (3) %
Anemia Any Grade, number of patients ([2]; human, in vivo): 6
Anemia Any Grade, percentage of patients ([2]; human, in vivo): (7) %
Anemia Grade ≤ 2, number of patients ([2]; human, in vivo): 5
Anemia Grade ≤ 2, percentage of patients ([2]; human, in vivo): (6) %
Anemia Grade ≥ 3, number of patients ([2]; human, in vivo): 1
Anemia Grade ≥ 3, percentage of patients ([2]; human, in vivo): (1) %
Decreased Appetite Any Grade, number of patients ([2]; human, in vivo): 9
Decreased Appetite Any Grade, percentage of patients ([2]; human, in vivo): (10) %
Decreased Appetite Grade ≤ 2, number of patients ([2]; human, in vivo): 9
Decreased Appetite Grade ≤ 2, percentage of patients ([2]; human, in vivo): (10) %
Decreased Appetite Grade ≥ 3, number of patients ([2]; human, in vivo): 0
Diarrhea Any Grade, number of patients ([2]; human, in vivo): 18
Diarrhea Any Grade, percentage of patients ([2]; human, in vivo): (20) %
Diarrhea Grade ≤ 2, number of patients ([2]; human, in vivo): 14
Diarrhea Grade ≤ 2, percentage of patients ([2]; human, in vivo): (15) %
Diarrhea Grade ≥ 3, number of patients ([2]; human, in vivo): 4
Diarrhea Grade ≥ 3, percentage of patients ([2]; human, in vivo): (4) %
Discontinued, primary reason Adverse Event, number of subjects ([2]; human, in vivo): 11 n
Discontinued, primary reason Adverse Event, percent of subjects ([2]; human, in vivo): (12) %
Dysgeusia Any Grade, number of patients ([2]; human, in vivo): 5
Dysgeusia Any Grade, percentage of patients ([2]; human, in vivo): (6) %
Dysgeusia Grade ≤ 2, number of patients ([2]; human, in vivo): 5
Dysgeusia Grade ≤ 2, percentage of patients ([2]; human, in vivo): (6) %
Dysgeusia Grade ≥ 3, number of patients ([2]; human, in vivo): 0
Erythema Any Grade, number of patients ([2]; human, in vivo): 7
Erythema Any Grade, percentage of patients ([2]; human, in vivo): (8) %
Erythema Grade ≤ 2, number of patients ([2]; human, in vivo): 7
Erythema Grade ≤ 2, percentage of patients ([2]; human, in vivo): (8) %
Erythema Grade ≥ 3, number of patients ([2]; human, in vivo): 0
Fatigue Any Grade, number of patients ([2]; human, in vivo): 20
Fatigue Any Grade, percentage of patients ([2]; human, in vivo): (22) %
Fatigue Grade ≤ 2, number of patients ([2]; human, in vivo): 16
Fatigue Grade ≤ 2, percentage of patients ([2]; human, in vivo): (18) %
Fatigue Grade ≥ 3, number of patients ([2]; human, in vivo): 4
Fatigue Grade ≥ 3, percentage of patients ([2]; human, in vivo): (4) %
Hypokalemia Any Grade, number of patients ([2]; human, in vivo): 6
Hypokalemia Any Grade, percentage of patients ([2]; human, in vivo): (7) %
Hypokalemia Grade ≤ 2, number of patients ([2]; human, in vivo): 6
Hypokalemia Grade ≤ 2, percentage of patients ([2]; human, in vivo): (7) %
Hypokalemia Grade ≥ 3, number of patients ([2]; human, in vivo): 0
Hypophosphatemia Any Grade, number of patients ([2]; human, in vivo): 13
Hypophosphatemia Any Grade, percentage of patients ([2]; human, in vivo): (14) %
Hypophosphatemia Grade ≤ 2, number of patients ([2]; human, in vivo): 7
Hypophosphatemia Grade ≤ 2, percentage of patients ([2]; human, in vivo): (8) %
Hypophosphatemia Grade ≥ 3, number of patients ([2]; human, in vivo): 6
Hypophosphatemia Grade ≥ 3, percentage of patients ([2]; human, in vivo): (7) %
Muscle Spasms Any Grade, number of patients ([2]; human, in vivo): 12
Muscle Spasms Any Grade, percentage of patients ([2]; human, in vivo): (13) %
Muscle Spasms Grade ≤ 2, number of patients ([2]; human, in vivo): 12
Muscle Spasms Grade ≤ 2, percentage of patients ([2]; human, in vivo): (13) %
Muscle Spasms Grade ≥ 3, number of patients ([2]; human, in vivo): 0
Nausea Any Grade, number of patients ([2]; human, in vivo): 16
Nausea Any Grade, percentage of patients ([2]; human, in vivo): (18) %
Nausea Grade ≤ 2, number of patients ([2]; human, in vivo): 16
Nausea Grade ≤ 2, percentage of patients ([2]; human, in vivo): (18) %
Nausea Grade ≥ 3, number of patients ([2]; human, in vivo): 0
Rash* Any Grade, number of patients ([2]; human, in vivo): 28
Rash* Any Grade, percentage of patients ([2]; human, in vivo): (31) %
Rash* Grade ≤ 2, number of patients ([2]; human, in vivo): 20
Rash* Grade ≤ 2, percentage of patients ([2]; human, in vivo): (22) %
Rash* Grade ≥ 3, number of patients ([2]; human, in vivo): 8
Rash* Grade ≥ 3, percentage of patients ([2]; human, in vivo): (9) %
Vomiting Any Grade, number of patients ([2]; human, in vivo): 13
Vomiting Any Grade, percentage of patients ([2]; human, in vivo): (14) %
Vomiting Grade ≤ 2, number of patients ([2]; human, in vivo): 13
Vomiting Grade ≤ 2, percentage of patients ([2]; human, in vivo): (14) %
Vomiting Grade ≥ 3, number of patients ([2]; human, in vivo): 0
